Test results: patent US3978045A, “N^2 -dansyl-L-arginine derivatives, and the pharmaceutically acceptable acid addition salts thereof” (priority 1973, dated 1976)

tested on: not listed separately; experiment: Acute toxicity (LD50) by oral administration in mice; conditions: mouse, in vivo, per kilogram of body weight

Point of comparison: `CCC1CCN(C(=O)[C@H](CCCNC(=N)N)NS(=O)(=O)c2cccc3c(N(C)C)cccc23)CC1` [4-ethyl-1-(N^2-dansyl-L-arginyl)piperidine], LD50 1380 mg/kg. Against it:
- CN(C)c1cccc2c(S(=O)(=O)N[C@@H](CCCNC(=N)N)C(=O)N3Cc4ccccc4C3)cccc12 [2-(N^2-dansyl-L-arginyl)isoindoline] — within 1.5-fold, 1360 mg/kg
- CC1CCN(C(=O)[C@H](CCCNC(=N)N)NS(=O)(=O)c2cccc3c(N(C)C)cccc23)CC1 [4-methyl-1-(N^2-dansyl-L-arginyl)piperidine] — within 1.5-fold, 1310 mg/kg
- CCCCOC(=O)[C@H](CCCNC(=N)N)NS(=O)(=O)c1cccc2c(N(C)C)cccc12 [N^2 -dansyl-L-arginine n-butyl ester] — higher, > 6000 mg/kg

molecular target: T1, thrombin (Bos taurus, UniProt P00735); experiment: Fibrinogen coagulation time (thrombin-induced clotting of fibrinogen); assay type: biochemical; conditions: bovine fibrinogen, borate saline buffer pH 7.4, thrombin 0.1 ml of 5 units/ml, 25°C; control coagulation time 50-55 seconds; read-out: Concentration required to prolong the coagulation time by a factor of 2
T1 construct: mature alpha-thrombin (light plus heavy chain) cut from prothrombin
Protocol: The antithrombotic activities of the N^2 -dansyl-L-arginine derivatives of this invention were compared with those of a known antithrombotic agent, (N^2 -(p-tolylsulfonyl)-L-arginine methyl ester). by determining the fibrinogen coagulation time. The measurement of the fibrinogen coagulation time was conducted as follows:
Immediately after mixing, the reaction mixture was transferred from the ice bath to a bath thermostated at 25°C. Coagulation times were taken as the period between the time of transference to the 25°C bath and the time of the first appearance of fibrin threads.
The term "concentration required to prolong the coagulation time by a factor of two" is the concentration of an active ingredient required to prolong the normal coagulation time 50-55 seconds to 100-110 seconds.

Point of comparison: `CC(C)C1CCN(C(=O)[C@H](CCCNC(=N)N)NS(=O)(=O)c2cccc3c(N(C)C)cccc23)CC1` [Sample 61, 4-(isopropyl)-1-(N^2-dansyl-L-arginyl)piperidine], IC (2-fold clotting time) 1 µM. Against it:
- CCC1CCN(C(=O)[C@H](CCCNC(=N)N)NS(=O)(=O)c2cccc3c(N(C)C)cccc23)CC1 [Sample 59, 4-ethyl-1-(N^2-dansyl-L-arginyl) piperidine] — 10-fold lower, 0.1 µM
- CCCC1CCN(C(=O)[C@H](CCCNC(=N)N)NS(=O)(=O)c2cccc3c(N(C)C)cccc23)CC1 [Sample 60, 4-(n-propyl)-1-(N^2-dansyl-L-arginyl)piperidine] — the same, 1 µM
- COC(=O)C1CCN(C(=O)[C@H](CCCNC(=N)N)NS(=O)(=O)c2cccc3c(N(C)C)cccc23)CC1 [Sample 62, 4-methoxycarbonyl-1-(N^2-dansyl-L-arginyl)piperidine] — 2.8-fold higher, 2.8 µM
- CN(C)c1cccc2c(S(=O)(=O)N[C@@H](CCCNC(=N)N)C(=O)N3CCC(C(N)=O)CC3)cccc12 [Sample 63] — 100-fold higher, 100 µM
- CN(C)c1cccc2c(S(=O)(=O)N[C@@H](CCCNC(=N)N)C(=O)N3CCCCCC3)cccc12 [Sample 64, N^2 -dansyl-N,N-hexamethylene-L-argininamide] — within 1.5-fold, 0.9 µM
- CN(C)c1cccc2c(S(=O)(=O)N[C@@H](CCCNC(=N)N)C(=O)N3CCCCCCC3)cccc12 [Sample 65, N^2 -dansyl-N,N-heptamethylene-L-argininamide] — the same, 1 µM
- CN(C)c1cccc2c(S(=O)(=O)N[C@@H](CCCNC(=N)N)C(=O)N3CCCCCCCC3)cccc12 [Sample 66, N^2 -dansyl-N,N-octamethylene-L-argininamide] — 2-fold higher, 2 µM
- CN(C)c1cccc2c(S(=O)(=O)N[C@@H](CCCNC(=N)N)C(=O)N3CCOCC3)cccc12 [Sample 67, 4-(N^2-dansyl-L-arginyl)morpholine] — 1.5-fold higher, 1.5 µM
- CC1CN(C(=O)[C@H](CCCNC(=N)N)NS(=O)(=O)c2cccc3c(N(C)C)cccc23)CC(C)O1 (some centres unmarked) [Sample 68] — 20-fold higher, 20 µM
- CN(C)c1cccc2c(S(=O)(=O)N[C@@H](CCCNC(=N)N)C(=O)N3Cc4ccccc4C3)cccc12 [Sample 70, 2-(N^2-dansyl-L-arginyl)isoindoline] — within 1.5-fold, 0.67 µM
- CN1CCN(C(=O)[C@H](CCCNC(=N)N)NS(=O)(=O)c2cccc3c(N(C)C)cccc23)CC1 [Sample 71, 4-methyl-1-(N^2-dansyl-L-arginyl)piperazine] — 2-fold higher, 2 µM
- CN(C)c1cccc2c(S(=O)(=O)N[C@@H](CCCNC(=N)N)C(=O)N3CCCc4ccccc43)cccc12 [Sample 72, N^2-dansyl-N-(1,2,3,4-tetrahydro-1-quinolyl)argininamide] — 6.5-fold higher, 6.5 µM
